Results taken from PMC9775191, “A Subset Screen of the Compounds Australia Scaffold Library Identifies 7-Acylaminodibenzoxazepinones as Potent and Selective Hits for Anti-Giardia Drug Discovery” (Biomedicines, 2022).
Like-named read-outs stand apart in the source and are kept apart here.

Tests used:
[1] = test system: Escherichia coli (ATCC 25922); test: Anti-bacterial activity assay; assay type: cell-based; conditions: Escherichia coli, ATCC25922, 50 µM; read-out: Bacterial Inhibition E. coli
Description: (§1) The activity of compounds against methicillin resistant Staphylococcus aureus (ATCC 43300), Escherichia coli (ATCC 25922), Acinetobacter baumannii (ATCC 19606) and Klebsiella pneumoniae (ATCC 700603) was assessed at 50 µM in duplicate as previously described. In brief, mid-log phase bacteria cultures were added to 384-well microtiter plate wells containing compound to final cell density of 5 × 10^5 CFU/mL in 50 µL. Plates were then covered and incubated at 37 °C for 18 h without shaking. Inhibition of bacterial growth was determined by measuring absorbance at 600 nm (Tecan M1000 Pro monochromator plate reader) and calculating percentage growth inhibition relative to the negative media and bacteria without inhibitors. Vancomycin hydrochloride (Sigma-Aldrich an affiliate of Merck KGaA, Darmstadt, Germany, #861987) and colistin sulfate (Sigma-Aldrich an affiliate of Merck KGaA, Darmstadt, Germany, C4461) were on each plate as positive controls for Gram-positive (S. aureus) and Gram-negative (E. coli, A. baumannii and K. pneumoniae) bacteria, respectively.

[2] = test system: Acinetobacter baumannii (ATCC 19606); test: Anti-bacterial activity assay; assay type: cell-based; conditions: ATCC19606, 50 µM
Description: as §1

[3] = test system: methicillin resistant Staphylococcus aureus (ATCC 43300); test: Anti-bacterial activity assay; assay type: cell-based; conditions: Staphylococcus aureus, ATCC43300, 50 µM; read-out: Bacterial Inhibition S. aureus
Description: as §1

[4] = test system: Klebsiella pneumoniae (ATCC 700603); test: Anti-bacterial activity assay; assay type: cell-based; conditions: ATCC700603, 50 µM, read-out: Bacterial Inhibition K. pneumoniae
Description: as §1

[5] = test system: Neonatal foreskin fibroblast (NFF) cells; test: Mammalian cell cytotoxicity assay (sulforhodamine B); assay type: cell-based, human; conditions: for inhibition at 20 µM: Homo sapiens, NFF, ±SD; for SI (48h Gd): Table S2, NFF vs 48 h Giardia IC50
Description: The selectivity of compounds of interest was assessed against NFF cells. Assays were performed using sulforhodamine B and included media only, negative (no compound, no DMSO), and vehicle (DMSO) controls as previously described. A chloroquine control plate was included in each assay. […] Repurchased SN00797640 was tested in dose–response from 100 µM against NFF. Selectivity indices (SI) were calculated by dividing mammalian cell IC50 values by G. duodenalis BRIS/91/HEPU/1279 IC50 values.

[6] = test system: G. duodenalis BRIS/91/HEPU/1279; test: Giardia dose response assay, assemblage B; assay type: cell-based, Giardia duodenalis; conditions: Giardia duodenalis; for IC50: ±SD, max 10 µM
Description: In these assays, compounds were serially diluted (8–12-point doubling dilutions in technical duplicate) in DMSO control media, with all test wells inoculated with parasites (1.5 × 10^4 parasites for BRIS/91/HEPU/1279 and BRIS/91/HEPU/1279m1, or 3 × 10^3 parasites for BRIS/87/HEPU/713). […] All plates were sealed in culture chambers and gassed with 3% O2, 5% CO2 in N2 and incubated at 37 °C for 48 h, with parasites imaged and enumerated at 24 and 48 h. Growth inhibition was calculated as a percentage relative to vehicle controls minus any background as described above and IC50 values were determined using log-linear interpolation as previously described. […] Statistical comparison of IC50 values when required were performed using Student’s t-test.

[7] = test system: G. duodenalis BRIS/91/HEPU/1279; test: Primary Giardia screen at 10 µM (live-cell imaging, automated counting); assay type: cell-based, Giardia duodenalis; conditions: for inhibition at 10 µM: Giardia duodenalis
In short: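 One concentration, 10 μM, is screened per compound in singlicate under microaerophilic gas (3% O2, 5% CO2, N2). Inhibition comes from automated image-based counts at 24 and 48 h, relative to 0.2% DMSO controls.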

[8] = 24 h, read-out: G. duodenalis IC50 24h, Table S2, 24 h
[9] = 48 h, Table S2, 48 h, read-out: G. duodenalis IC50 48h
[10] = 24 h, first singlicate assay, read-out: % Inhibition n=1 24h
[11] = 24 h, re-assessment, read-out: % Inhibition n=2 24h
[12] = 24 h, read-out: Average % Inhibition 24h
[13] = 48 h, first singlicate assay, read-out: % Inhibition n=1 48h
[14] = 48 h, re-assessment, read-out: % Inhibition n=2 48h
[15] = 48 h, read-out: Average % Inhibition 48h

Compound	inhibition at 50 µM [1] [%]	inhibition at 50 µM [2] [%]	inhibition at 50 µM [3] [%]	inhibition at 50 µM [4] [%]	inhibition at 20 µM [5] [%]	IC50 [6, 8] [µM]	IC50 [6, 9] [µM]	inhibition at 10 µM [7, 10] [%]	inhibition at 10 µM [7, 11] [%]	inhibition at 10 µM [7, 12] [%]	inhibition at 10 µM [7, 13] [%]	inhibition at 10 µM [7, 14] [%]	inhibition at 10 µM [7, 15] [%]	inhibition at 10 µM ([6]; read-out: % inhibition @ 10µM 48h (comment), Table S2 comment, 10 µM, 48 h) [%]	SI (48h Gd) [5]	Average % Inhibition 48h ([7]; 48 h) [%]
O=[N+]([O-])c1cc(F)ccc1Sc1nnc(N2CCOCC2)s1 [SN00781107, Fc1ccc(Sc2nnc(s2)N2CCOCC2)c(c1)N(=O)=O]	2.28	3.43	4.13	10.6	-19.8 ± 44.9	6.87 ± 1.88	1.86 ± 2.52	34	27.7	30.8	64.2	57.4	60.8	–	–	–
COc1cc(OC)c(C2=CCN(C(=O)c3ccc(C)s3)CC2)c(OC)c1 [SN00769982, COc1cc(OC)c(C2=CCN(CC2)C(=O)c2ccc(C)s2)c(OC)c1]	6.08	2.57	3.41	15.6	-9.1 ± 3.8	> 10	9.59	46.2	0	23.1	78.1	40.5	59.3	–	–	–
Cc1ccc(NC(=O)CN2C(=O)C3CCCCN3c3ccc(C(=O)N4CCCC4)cc32)cc1 (centres unmarked) [SN00792764, Cc1ccc(cc1)NC(=O)CN1C(=O)C2CCCCN2c2ccc(cc12)C(=O)N1CCCC1]	3.43	4.12	-1.85	5.08	16.6 ± 20.4	> 10	> 10	43.9	27.1	35.5	59	65.8	62.4	45.9	–	–
O=C(NC1CCCCC1)c1nc(Nc2ccccc2)c2ccccc2n1 [SN00792461, O=C(NC1CCCCC1)c1nc(Nc2ccccc2)c2ccccc2n1]	3.63	10.8	8.09	12.6	21.3 ± 27.1	5.35	7.82	44.7	74.4	59.5	57.7	88.5	73.1	–	> 2	–
CC(=O)Nc1ccc([N+](=O)[O-])c2nonc12 [SN00783960, CC(=O)Nc1ccc(N(=O)=O)c2nonc12]	12	6.26	95.3	19.9	98.5 ± 3.8	3.1 ± 2.29	3.27 ± 4.08	53.9	36.2	45.1	66.5	60.2	63.3	–	< 6	–
COc1ccc(C)cc1N1C(=O)C(c2ccccc2)C(c2nc3ccccc3s2)=C1N (centres unmarked) [SN00776374, COc1ccc(C)cc1N1C(=C(c2nc3ccccc3s2)C(c2ccccc2)C1=O)N]	2.94	13.3	16.6	11.7	100.4 ± 0.2	1.76 ± 0.35	1.01 ± 0.29	90.5	90	90.3	95.8	97.6	96.7	–	< 20	> 90
O=C(Nc1nc(-c2ccco2)c(-c2ccco2)s1)c1ccccc1 [SN00769776, O=C(Nc1sc(c2ccco2)c(n1)c1ccco1)c1ccccc1]	8.92	23.4	6.45	32.1	24.8 ± 11.7	> 10	> 10	35.4	19	27.2	77.6	64.8	71.2	–	–	–
Cc1ncc([N+](=O)[O-])n1Cc1csc(Cc2ccccc2)n1 [SN00780011, O=N(=O)c1cnc(C)n1Cc1csc(Cc2ccccc2)n1]	8.95	10.5	11.7	16.4	9.2 ± 12.4	> 10	5.48	33.3	27	30.1	54.9	79.2	67.1	–	> 3	–
Cc1ccc(NC(=O)c2cc3c(Cl)ccc4c3n2CCO4)cc1 [SN00788144, Cc1ccc(cc1)NC(=O)c1cc2c(Cl)ccc3OCCn1c23]	2.85	20.8	-2.91	13.5	31.4 ± 11.3	> 10	> 10	41	20.1	30.5	65.8	32.9	49.3	–	–	–
Cc1ccc(C(=O)Nc2cc(-c3nc(C)cs3)sc2C)cc1 [SN00798457, Cc1ccc(cc1)C(=O)Nc1cc(sc1C)c1scc(C)n1]	1.98	-2.12	-16.6	0.63	16.3 ± 20.4	> 10	> 10	39.3	16.7	28	60	52.2	56.1	–	–	–
COc1ccc(NC(=O)c2ccc(-c3cc(NC4CCCCC4)ncn3)cc2)cc1 [SN00794765, COc1ccc(cc1)NC(=O)c1ccc(cc1)c1ncnc(NC2CCCCC2)c1]	3.31	-0.4	2.05	1.61	23.1 ± 8.6	> 10	> 10	29.5	4.7	17.1	63.5	38.6	51	–	–	–
Cc1ccc(C)c(-c2cc3c4nn(CC(=O)N(C)c5ccc(F)cc5)c(=O)n4ccn3n2)c1 [SN00790641, Fc1ccc(cc1)N(C)C(=O)Cn1nc2c3cc(nn3ccn2c1=O)c1cc(C)ccc1C]	0.25	4.72	-6.6	6.73	40.4 ± 1.1	2.84	3.41 ± 2.02	88.6	70.6	79.6	95	97.7	96.3	–	> 5	> 90
